Laboratory results from PMC7004151, “Synthesis and Structure‐Activity Relationships of N‐(4‐Benzamidino)‐Oxazolidinones: Potent and Selective Inhibitors of Kallikrein‐Related Peptidase 6” (Chemmedchem, 2019).

How the values were obtained:
[1] = biological target: KLK4 (Homo sapiens, UniProt Q9Y5K2); experiment: KLK4 inhibition (selectivity); format: biochemical; settings: read-out: KLK4 pIC50 (converted)
Text: Table 3 Activity of synthesized inhibitors against KLK6 and related proteases. | column: KLK4^a

[2] = biological target: T1, KLK7 (Homo sapiens, UniProt P49862); experiment: KLK7 enzyme inhibition assay; format: biochemical; settings: read-out: KLK7 pIC50 (converted)
T1 construct: purchased 2B scientific
Procedure: Enzyme inhibition assays: All chemicals were purchased from Sigma Aldrich (Gillingham, UK) unless otherwise stated. All experiments were conducted in 384 well black, low volume microplates (Greiner 784076) with a final volume of 20 μL and compounds were dispensed into assay plates using an ECHO 550 acoustic dispenser (Labcyte). KLK6 (5 nM) (prepared as in ref. 21) was incubated with test compounds for 30 min at room temperature in assay buffer (50 mM Tris, pH 7.5, 150 mM NaCl, 1 mM EDTA, 0.05 % tween 20, 0.1 % bovine serum albumin (BSA), 1 mM dithiothreitol (DTT)) before the reaction was started by addition of 20 μM Boc‐Phe‐Ser‐Arg‐AMC substrate (Bachem). Fluorescence intensity was read at ex/em 355/460 following incubation for 2 h in the dark at room temperature.
Assays using KLK7 and KLK8 (2B scientific) were conducted in the same manner as for KLK6 with the following exceptions. Both KLK7 and KLK8 required activation before assaying. KLK7 was combined with an equal volume of 20 μg/ml thermolysin (R&D systems) in activation buffer (50 mM Tris, pH 7.5, 10 mM CaCl2, 150 mM NaCl and 0.05 % Brij‐L23) and incubated at 37 °C for 2 h, the reaction was stopped with the addition of 100 mM EDTA in stop solution (50 mM Tris, 150 mM NaCl, pH 8.5). KLK8 was combined with an equal volume of 0.4 mU/mL lysyl endopeptidase (Alpha laboratories) in activation buffer (50 mM Tris, pH 8.0) and incubated at 37 °C for 30 min. Activated KLK7 (40 nM) and KLK8 (25 nM) were assayed with 40 μM Mca‐RPKPVE‐Nval‐WRK(Dnp)‐NH2 fluorogenic MMP substrate (R&D systems) and 25 μM Boc‐V‐P‐R‐AMC substrate (R&D systems), respectively.

[3] = biological target: T2, Human thrombin (Homo sapiens, UniProt P00734); experiment: Thrombin enzyme inhibition assay; format: biochemical; settings: read-out: Thrombin pIC50 (converted)
T2 construct: Human thrombin was purchased from Biopur; purchased Biopur
Procedure: Human thrombin was purchased from Biopur. Human trypsin was purchased from Polymun Scientific. Human Factor Xa was purchased from Enzo Life Sciences. Thrombin (20 nM), trypsin (0.000015 %) or Factor Xa (10 nM) were assayed in a similar manner to the KLKs but were incubated with compound for 20 min at room temperature in assay buffer (50 mM Tris HCl, pH 7.6, 100 mM NaCl, 1 mg/ml CHAPS, 0.05 % bovine serum albumin (BSA), 1 mM dithiothreitol (DTT)) before the addition of 5 μM, 2.5 μM or 1.5 μM Rhodamine 110 substrate (Cambridge bioscience ltd) respectively. Fluorescence intensity was then read at ex/em 485/535 following incubation for 1 h at room temperature (thrombin and factor Xa) or 20 min (trypsin).

[4] = Kinetic aqueous solubility (laser nephelometry); format: physicochemical; settings: Milli-Q water with […] DMSO, kinetic from dmso stock, 2.5 % DMSO
Procedure: Kinetic aqueous solubility: The aqueous solubility of the test compounds was measured using laser Nephelometry. Compounds were subjected to serial dilution from 10 mM to 0.5 mM in DMSO. An aliquot was then mixed with Milli‐Q water to obtain an aqueous dilution plate with a final concentration range of 250–12 μM, with a final DMSO concentration of 2.5 %. Triplicate aliquots were transferred to a flat bottomed polystyrene plate which was immediately read on the NEPHELOstar (BMG Lab Technologies). The amount of laser scatter caused by insoluble particulates (relative nephelometry units, RNU) was plotted against compound concentration using a segmental regression fit, with the point of inflection being quoted as the compounds aqueous solubility (μM).

[5] = Microsomal intrinsic clearance, human microsomes; format: in vitro ADME
Procedure: Immediately, at time zero, then at 3, 6, 9, 15 and 30 min an aliquot (50 μL) of the incubation mixture was removed and mixed with acetonitrile (100 μL) to stop the reaction. Internal standard was added to all samples, the samples centrifuged to sediment precipitated protein and the plates then sealed prior to UPLC‐MS/MS analysis using a Quattro Premier XE (Waters Corporation, USA). XLfit (IDBS, UK) was used to calculate the exponential decay and consequently the rate constant (k) from the ratio of peak area of test compound to internal standard at each timepoint. The rate of intrinsic clearance (CLint) of each test compound was then calculated using the following calculation: CLint (mL/min/g liver)=k×V×Microsomal protein yield. Where V (mL/mg protein) is the incubation volume/mg protein added and microsomal protein yield is taken as 52.5 mg protein/g liver. Verapamil (0.5 μM) was used as a positive control to confirm acceptable assay performance.

[6] = Hepatocytes intrinsic clearance; format: in vitro ADME
Procedure: Hepatocytes Intrinsic clearance (CLint) assay: Cryopreserved vials of mouse cryopreserved hepatocytes, supplied by Life Technologies, were thawed according to manufacturer's instructions and cells re‐suspended in Williams Medium E (WME) containing cell maintenance supplement pack (CM4000, Life Technologies). Hepatocytes were incubated in suspension (0.5x10^6 cells/mL) in 48 well non‐collagen coated cell culture plates for 10 min at 37 °C, 95 % O2 5 % CO2. Upon addition of an equal volume of supplemented WME containing 1 μM test compound, an aliquot of incubation solution was removed to acetonitrile containing internal standard (final concentration 0.5 μM test compound and a cell density of 0.25×10^6 cells/mL). Similarly, aliquots were removed at 3, 6, 9, 15, 30, 45, 60, 90 and 120 min. 100 μL of 80 : 20 H2O/MeCN was added to all samples and the analysis plate was centrifuged for 10 min at room temperature prior to injection and analysis of samples by UPLC‐MS/MS. The response (area ratio of test compound to internal standard) was plotted against time using an exponential decay model and rate of disappearance calculated. Hepatocyte CLint (mL/min/10^6 cells) was scaled to in vivo CLint (mL/min/g liver) using the hepatocellularity scaling factor of 120×10^6 cells/g of liver.

[7] = in vitro; settings: female, CD1, mouse, plasma
Procedure: Plasma protein binding assay: Briefly, a 96 well equilibrium dialysis apparatus was used to determine the free fraction in plasma for each compound (HT Dialysis LLC, Gales Ferry, CT). Membranes (12–14 kDa cut‐off) were conditioned in deionized water for 60 minutes, followed by conditioning in 80 : 20 deionized water: ethanol for overnight at 4 °C and then rinsed in isotonic buffer before use. Female CD1 mouse plasma was removed from the freezer and allowed to thaw on the day of experiment. Thawed plasma was then centrifuged (Allegra X12‐R, Beckman Coulter, USA), spiked with test compound (final concentration 10 μg/mL), and 150 μL aliquots (n=6 replicate determinations) loaded into the 96‐well equilibrium dialysis plate. Dialysis vs isotonic buffer (150 μL) was carried out for 5 h in a temperature‐controlled incubator at 37 °C (Barworld scientific Ltd, UK) using an orbital microplate shaker at 100 rpm (Barworld scientific Ltd, UK). […] All samples were analyzed by UPLC‐MS/MS on a Quattro Premier XE Mass Spectrometer (Waters Corporation, USA). The unbound fraction was determined as the ratio of the peak area in buffer to that in plasma.

T1 sequence (P49862 30-253, species assumed): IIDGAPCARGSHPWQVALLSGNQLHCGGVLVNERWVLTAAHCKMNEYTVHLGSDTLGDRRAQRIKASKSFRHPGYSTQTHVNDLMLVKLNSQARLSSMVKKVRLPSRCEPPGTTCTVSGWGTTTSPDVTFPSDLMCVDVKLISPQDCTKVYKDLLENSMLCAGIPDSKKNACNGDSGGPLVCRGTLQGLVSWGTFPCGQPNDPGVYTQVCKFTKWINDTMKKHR
KLK4, sequence (Q9Y5K2 31-254, species assumed): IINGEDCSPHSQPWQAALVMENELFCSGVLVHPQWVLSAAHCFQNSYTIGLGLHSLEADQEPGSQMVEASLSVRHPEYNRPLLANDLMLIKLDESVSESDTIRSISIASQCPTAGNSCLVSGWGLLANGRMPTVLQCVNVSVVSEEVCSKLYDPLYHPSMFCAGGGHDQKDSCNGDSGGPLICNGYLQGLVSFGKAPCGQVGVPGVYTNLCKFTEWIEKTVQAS

What does the source list for `CC[C@H](NC(=O)[C@H]1CN(c2ccc(C(=N)N)cc2)C(=O)O1)c1cccc2ccccc12` [Compound 32, (5R)‐3‐(4‐carbamimidoylphenyl)‐N‐((S)‐1‐(naphthalen‐1‐yl)propyl)‐2‐oxooxazolidine‐5‐carboxamide]?
IC50 [1]: 0.158 µM; IC50 [2]: > 20 µM; IC50 [3]: > 20 µM; solubility kinetic [4]: > 250 µM; Human CLint [5]: 3.1 mL/min/g; Mouse Hep Cl [6]: 2.3 mL/min/g; fraction unbound at 5 h, 10 μg/mL [7]: 0.11
